In patent publication US9050353B2, “Use of icariin and epimedium flavonoids containing icariin to treat diseases associated with myelin sheath lesion” (Xuanwu Hospital of Capital Medical University, priority 2010, dated 2015):

Tests used:
IL-1 = test: Serum IL-1 content by ELISA, EAE mice; format: in vivo; details: positive control drug, dose not given
Description: (§1) Preparation of mice model and administration: experimental autoimmune encephalomyelitis (EAE) mice model is an important tool for studying various human demyelinating diseases of nervous system. In the present experiment, the preparation of EAE mice model was performed by immunizing female C57BL/6J mice with myelin sheath oligodendroglial cell surface glycoprotein MOG35-55. That is, the mice were subcutaneously injected at dorsal part of spinal column with 0.2 mL of MOG35-55 antigen elixir, and 0.2 ml of bordetella pertussis solution was intraperitoneally injected at the time of immunization injection and 48 h thereafter, respectively. Icariin was intragastrically administered after the last injection of bordetella pertussis solution, for consecutive 3 weeks.
(§2) Experimental objective: interleukin-1 (IL-1) and IL-6 are important inflammatory cytokines, and have promoting effects on inflammatory reactions. This experiment used enzyme linked immunosorbent assay (ELISA) to measure contents of IL-1 and IL-6 in serums of EAE mice model, and the effects of icariin on these contents were observed.
(§3) Experimental method: mice were anesthetized with pentobarbital sodium, blood sample was taken from abdominal aorta, stood at room temperature for 2 h, centrifuged at 3000 rpm for 20 min, and supernatant was taken, stored at −80° C. for use. The operation was performed strictly according to the steps of specification of ELISA kit. Optical density was measured with ELIASA at 450 nm. The corresponding contents of IL-1 and IL-6 were calculated with the measured OD values on standard curves.

[1] = test system: Superoxide dismutase (SOD); test: SOD activity of cerebral cortex, biochemical kit, EAE rats; format: in vivo; details: positive control drug, dose not given
Description: (§4) Preparation of rat model and administration: experimental autoimmune encephalomyelitis (EAE) model is an important tool for studying various human demyelinating diseases of nervous system. In the example, the preparation of EAE rat model was performed by multipoint immunizing female Lewis rats subcutaneously at tail root with a homogenate of spinal cord and cerebral gray matter of Guinea pig as well as complete Freund's adjuvant after emulsification. They were intragastrically administered with Epimedium flavanoids for 3 weeks.
Experimental objective: the lipid peroxidation between oxygen free radicals and unsaturated fatty acids of cell membranes and organelle membranes results in the damage, degradation, denaturation and dysfunction of membrane phospholipids. Malondialdehyde (MDA) is a metabolic product of lipid peroxidation, and the increase of MDA indicates the enhancement of lipid peroxidation, which may lead to damage of nerve cells and myelin sheath. Superoxide dismutase (SOD) can scavenge superoxide anions and is an important antioxidase in vivo. In this experiment, SOD activity and MDA content of brain tissues in EAE rat model were measured by biochemistry method, and the effects of Epimedium flavanoids on changes thereof were observed. […]

[2] = test system: myeloid tissue myelinoclasis in EAE mice model; test: Myelinoclasis of myeloid tissue, LFB staining, EAE mice; format: in vivo; details: positive control drug, dose not given, scale 0-4
Description: as §1
Experimental objective: the myelinoclasis of myeloid tissue of EAE model mice were assayed by Luxol Fast Blue (LFB) staining, and the intervention effects of icariin on this pathological change were studied.
(§5) Experimental method: the mice were anesthetized with 10% chloral hydrate on the 29th day of experiment, fixed by perfusion of 4% paraformaldehyde, myeloid tissues were taken for making paraffin sections, section thickness 5 nm. Stained with LFB, observed under microscope, and scored according to the following standard: 0 score, absence of myelinoclasis; 1 score, one small range of myelinoclasis; 2 score, 2 or 3 small ranges of myelinoclasis; 3 score, 1 to 2 large ranges of myelinoclasis; 4 score, large ranges of myelinoclasis accumulatively existing in 20% or more of white matter regions.

[3] = test system: myelinoclasis of spinal cord lumbar intumescentia in EAE rat model; test: Myelinoclasis of spinal cord lumbar intumescentia, LFB staining, EAE rats; format: in vivo; details: positive control drug, dose not given, scale 0-4
Description: Preparation of rat model and administration: experimental autoimmune encephalomyelitis (EAE) model is an important tool for studying various human demyelinating diseases of nervous system. In the example, the preparation of EAE rat model was performed by multipoint immunizing female Lewis rats subcutaneously at tail root with a homogenate of spinal cord and cerebral gray matter of Guinea pig as well as complete Freund's adjuvant after emulsification. They were intragastrically administered with Epimedium flavanoids for 3 weeks. […]
as §5, with “rats” for “mice”, “14th” for “29th”, “spinal cord” for “myeloid”, “4 μm. (1)” for “5 nm.”, “regions. […]” for “regions.”

[4] = test system: Nerve growth factors (NGF); test: NGF of spinal cord lumbar intumescentia by immunohistochemical method, EAE rats; format: in vivo; details: positive control drug, dose not given
Description: as §4
Experimental objective: neurotrophic factors are important substances for constituting nerve regeneration microenvironment. Nerve growth factors (NGF) are important neurotrophic factors, can promote the regeneration and plerosis of nerve cells and myelin sheath. In this experiment, NGF content of spinal cord lumbar intumescentia in EAE rat model was measured by immunohistochemical method, and the effects of Epimedium flavanoids on the content was observed.
Experimental method: the rats were anesthetized with 10% chloral hydrate, fixed by perfusion of 4% paraformaldehyde, spinal cord tissues were taken for frozen section. Incubated with NGF primary antibody, added with corresponding secondary antibody and third antibody, DAB colorated, observed under microscope, and pictures were analyzed using Image Pro plus5.0 software.

IL-6 = test: Serum IL-6 content by ELISA, EAE mice; format: in vivo; details: positive control drug, dose not given
Description: as §1, §2, §3

[5] = test system: experimental autoimmune encephalomyelitis (EAE) mice model; test: Nervous function damage score in EAE mice model; format: in vivo, C57BL/6J mice; details: peak of attack, positive control drug, dose not given, scale 0-5
Description: as §1
Nervous function test method: the ethological changes of mice were observed by two experimenters every day using blind method. Scoring standard: 0 score, absence of symptom; 1 score, decrease of tail tension, evident slight gait awkward; 2 score, disappearance of tail tension, moderate gait abnormal, deficient in maintaining gesture; 3 score, limb strength weak; 4 score, limb paralysis; 5 score, near death or died.

## CC(=O)OCC(=O)[C@@]1(O)CC[C@H]2[C@@H]3CCC4=CC(=O)C=C[C@]4(C)[C@H]3C(=O)C[C@@]21C [prednisone acetate]
IL-1
  IL-1 content: 0.115 ± 0.001 pg/mL
[1]
  SOD activity: 134.5 ± 5.1 U/mg protein
[2]
  Myelinoclasis (LFB staining score): 0.77 ± 0.22
[3]
  Myelinoclasis (LFB staining score): 0.89 ± 0.20
[4]
  NGF positive cell Accumulative optical density: 11.25 ± 1.67 ×10^5
IL-6
  IL-6 content: 0.121 ± 0.010 pg/mL
[5]
  Nervous function damage score: 0.89 ± 0.28
